According to US20130143869A1, “USE OF A CATIONIC AMPHIPHILIC DRUG FOR THE PREPARATION OF A FORMULATION FOR THE REDUCTION OF SUBCUTANEOUS ADIPOSE TISSUE” (Merz Pharma GmbH & CO. KGaA, priority 2010, published 2013):

Assays:
[1] = Precipitation of test item in cytotoxicity assay media; type: physicochemical; conditions: above 500 μM
Description: (§1) The test items 1 to 8 were prepared according to Table 1 to yield respective stock solutions. Said stock solutions were further diluted in assay media to obtain the double concentrated working solutions, which were subsequently diluted 1:2 in the final assay. […] Deoxycholate Na was selected as “reference compound”.

human adipocyte cells [2] = test: Membrane integrity: LDH release from human adipocytes (LDH assay); type: cell-based; conditions: Example 1, 48 hrs, relative to Triton-x 100 maximal LDH release
Description: (§2) HWP were obtained in passage two and differentiated in vitro to mature adipocytes. Briefly, cells were initially cultured in preadipocyte growth medium at 37° C. and 5% CO2 to 70-80% confluency. Then, cells were seeded at 40,000 cells/ml into 96-well flat bottom tissue culture plates and incubated overnight to allow attachment. Differentiation was initiated by changing the medium to preadipopcyte differentiation medium for an additional 72 hrs. After differentiation was induced, the medium was replaced by adipocyte nutrition medium that was refreshed every 2-3 days over a period of 14 days until termination of differentiation. Differentiation status was checked via nile red staining of control cells.
(§3) For the cytotoxicity assays in this study pre-adipocytes were seeded at 40,000 cells/ml into a 96-well microtiter flat bottom plate. The test items were prepared in separate plates starting with the double concentrated maximal test concentration followed by a 1:2 serial dilution (Chloroquine and Fluoxetine 1:3) and then added to the cells. The test items were tested at 6 replicates/concentration. Each plate included negative controls (media plus solvent, 6 replicates), a drug interference control (all concentrations, duplicates), a background control (14 replicates), a positive (=cytotoxic) control (6 replicates doxorubicin, 1 μM final) and a positive control for maximal LDH-release (2 replicates, 2% Triton-x 100 final).
(§4) Relative cell viability was determined after 48 hrs exposure based on metabolic activity (i.e. resazurin conversion). Using a Victor^3 1420 Multilabel Counter, the resazurin conversion to the fluorescent resorufin by metabolically active cells was recorded at 560Ex/590Em. Membrane integrity was measured after 6 hrs and 48 hrs and the enzymatic activity of released LDH in the cell supernatant after 30 min of incubation at 492 nmabsorption/690 nmreference by a spectrophotometer. The volume withdrawn from the cultures for the LDH-assay was not replaced to keep cells in a less disturbed environment. The assay was conducted in a multiplexed format.
For the dose-response relationship, absolute absorption (OD treated wells−background) was plotted against the test item concentrations representing LDH leakage from the cells. For a better estimation of the test items' potential influencing the membrane integrity, relative, maximal LDH release in percent (see Table 2) was also calculated according to the following formula: […]
(§5) The effects on cytotoxicity in human adipocyte cells of a further 9 compounds were tested. The experimental set-up was identical to the one in example 1.

Human white adipocytes = test: Apoptosis/necrosis detection, Annexin V-FITC/PI flow cytometry; type: cell-based
Excerpt: The apoptotic program is characterized by certain morphologic features. Loss of plasma membrane asymmetry is a well established indicator for apoptotic cells. In apoptotic cells, the membrane phospholipid phosphatidylserine (PS) is translocated from the inner to the outer leaflet of the plasma membrane, thereby exposing PS to the external environment. In general, this PS translocation is preceded by caspase activation. Annexin V labelled with FITC is a Ca^2+ dependent phospholipid-binding protein with high affinity for PS and binds to cells with externalized PS. Cells stained with Annexin V*FITC are therefore considered in an early apoptotic stage.
Staining with Annexin V-FITC is typically used in conjunction with a vital dye such as propidium iodide (PI) to allow discrimination between early apoptotic and necrotic cells. Necrotic dying cells are PI positive only. Cells that are viable are Annexin V and PI negative; cells that entered apoptosis are Annexin V positive and PI negative and cells that are in post apoptotic and/or necrotic phase are both Annexin V and PI positive.
Human white adipocytes that had been differentiated in vitro from pre-adipocytes as describe above were used. Measurements were performed after 5 hrs to catch early apoptotic/necrotic events and after 24 hrs and 48 hrs for later stages. Naringenin at 500 μM (reported to induce apoptosis in adipocytes) was used as positive control and media plus solvent was used as negative control. Each compound was tested in three different concentrations. […] Two more concentrations, one below and one above the IC50 were added.
Flow cytometry was performed with a dual laser FC500. After completion of the staining procedure, tubes were grouped into a FC500 carousel for semi-automated data acquisition. Cells were first acquired in “Setup” mode to tune the parameters FS, SS, FL1 and FL2. After completion of the setup, baseline compensation was switched on and cells were acquired. Cells were acquired without life-gate but using FS threshold to exclude debris. All cells were acquired using individually corrected settings.
After completion of data acquisition, analysis was done using the CXP software. If necessary, software-based post acquisition compensation was performed to fine-correct for fluorescence overlap not adjusted for during the acquisition phase. Quadrant markers were set based on the negative controls.

human adipocyte cells [3] = test: Cytotoxicity assay: metabolic activity (resazurin conversion) of human adipocytes; type: cell-based; conditions: read-out: IC50 (metabolic activity after 48 hrs); Example 1, 48 hrs exposure, resazurin
Description: as §2, §1, §3, §4
In order to derive meaningful IC50 values from the primary data, the entire biological window of activity ranging from 0% to 100% viability should be covered and the resolution has to be sufficient. To improve data quality, the serial dilution factor used in previous experiments was reduced to a 1:2 and 1:3 dilution. […] IC50 (half maximal inhibitory concentration, calculated via Sigma Plot 10) values were determined for each test substance 1 to 8.
as §5

CC(=O)N1CCN(c2ccc(OCC3COC(Cn4ccnc4)(c4ccc(Cl)cc4Cl)O3)cc2)CC1 (centres unmarked) [Test substance 5, Ketoconazole]
precipitation in assay media [1]: generation of insoluble precipitates at higher concentrations | Rel. max. LDH release [%] 48 hrs (human adipocyte cells [2]): 92.2% | primary mode of cell death (Human white adipocytes): Apoptosis can be considered primary mode of cell death at the lower concentration range with necrosis taking place later at higher concentrations | Early Apoptosis [A-V*/PI*] (Human white adipocytes; 60 μM, 5 hrs): 26.5 | Necrosis/ Late Apoptosis [A-V*/PI*] (Human white adipocytes; 60 μM, 5 hrs): 1.4 | Normal [A-V*/PI] (Human white adipocytes; 60 μM, 5 hrs): 72.1 | Early Apoptosis [A-V*/PI*] (Human white adipocytes; 60 μM, 24 hrs): 19.5 | Necrosis/ Late Apoptosis [A-V*/PI*] (Human white adipocytes; 60 μM, 24 hrs): 2.6 | Normal [A-V*/PI] (Human white adipocytes; 60 μM, 24 hrs): 77.9 | Early Apoptosis [A-V*/PI*] (Human white adipocytes; 60 μM, 48 hrs): 9.1 | Necrosis/ Late Apoptosis [A-V*/PI*] (Human white adipocytes; 60 μM, 48 hrs): 3.8 | Normal [A-V*/PI] (Human white adipocytes; 60 μM, 48 hrs): 87.1 | Early Apoptosis [A-V*/PI*] (Human white adipocytes; 80 μM, 5 hrs): 34 | Necrosis/ Late Apoptosis [A-V*/PI*] (Human white adipocytes; 80 μM, 5 hrs): 2.2 | Normal [A-V*/PI] (Human white adipocytes; 80 μM, 5 hrs): 63.8 | Early Apoptosis [A-V*/PI*] (Human white adipocytes; 80 μM, 24 hrs): 22.7 | Necrosis/ Late Apoptosis [A-V*/PI*] (Human white adipocytes; 80 μM, 24 hrs): 17.9 | Normal [A-V*/PI] (Human white adipocytes; 80 μM, 24 hrs): 59.4 | Early Apoptosis [A-V*/PI*] (Human white adipocytes; 80 μM, 48 hrs): 18.5 | Necrosis/ Late Apoptosis [A-V*/PI*] (Human white adipocytes; 80 μM, 48 hrs): 44.9 | Normal [A-V*/PI] (Human white adipocytes; 80 μM, 48 hrs): 36.6 | Early Apoptosis [A-V*/PI*] (Human white adipocytes; 100 μM, 5 hrs): 23.6 | Necrosis/ Late Apoptosis [A-V*/PI*] (Human white adipocytes; 100 μM, 5 hrs): 3.1 | Normal [A-V*/PI] (Human white adipocytes; 100 μM, 5 hrs): 73.3 | Early Apoptosis [A-V*/PI*] (Human white adipocytes; 100 μM, 24 hrs): 16.9 | Necrosis/ Late Apoptosis [A-V*/PI*] (Human white adipocytes; 100 μM, 24 hrs): 82.6 | Normal [A-V*/PI] (Human white adipocytes; 100 μM, 24 hrs): 0.5 | Early Apoptosis [A-V*/PI*] (Human white adipocytes; 100 μM, 48 hrs): 36.9 | Necrosis/ Late Apoptosis [A-V*/PI*] (Human white adipocytes; 100 μM, 48 hrs): 52.5 | Normal [A-V*/PI] (Human white adipocytes; 100 μM, 48 hrs): 0.5 | apoptosis/necrosis induction in human adipocytes (in words) (Human white adipocytes; 5, 24, 48 hrs, concentrations as in Table 4): caused apoptosis after 5 hrs at 60, 80, and 100 μM increasing over time | IC50 (human adipocyte cells [3]): 78 µM
